Data taken from patent US12473264B2, “Inhibitors of erythrocyte band 3 tyrosine phosphorylation and uses thereof” (Purdue Research Foundation, priority 2019, dated 2025).
Like-named read-outs stand apart in the source and are kept apart here. Values belong to the molecule of their own block, whether it stands above or below them.

Key:
Syk = Syk (Homo sapiens, UniProt P43405); experiment: ADP-Glo kinase inhibition assay, Syk; assay type: biochemical
Procedure: Syk kinase inhibition assays were run on 96-well plates using the ADP-Glo assay kit according to manufacturer's specifications. All kinase reactions were run using Kinase Assay Buffer III supplemented with DTT and MnCl2 as required by the kinase of interest to generate kinase reaction buffer. Stock solutions of kinase inhibitor in DMSO were diluted into 2× kinase reaction buffer and the final concentration of DMSO in each kinase reaction was held below 1%. […] Kinase inhibitors were incubated with kinase and substrate prior to addition of ATP for 20 min at room temperature (RT). After addition of ATP to the wells, the plate was incubated at 37° C. for 30-60 minutes depending on the kinase used. After incubation the plate was cooled to RT for 5 minutes prior to addition of 25 μL ADP-Glo reagent and incubation on a shaker for 40 minutes. After 40 minutes, 50 μL Kinase Detection reagent were added and the plate was protected from light while incubated on a shaker. After 30 min, the luminescence was recorded using a Neo2 plate reader and 1 sec integration of the signal. The background signal was subtracted from all readings and the signal was normalized to the maximum signal obtained in the absence of inhibitor. Data were plotted and inhibition curves fit using Graphpad software.

EGFR = EGFR (Homo sapiens, UniProt P00533); experiment: ADP-Glo kinase assay, EGFR; assay type: biochemical
Sequence of EGFR (P00533 25-1210): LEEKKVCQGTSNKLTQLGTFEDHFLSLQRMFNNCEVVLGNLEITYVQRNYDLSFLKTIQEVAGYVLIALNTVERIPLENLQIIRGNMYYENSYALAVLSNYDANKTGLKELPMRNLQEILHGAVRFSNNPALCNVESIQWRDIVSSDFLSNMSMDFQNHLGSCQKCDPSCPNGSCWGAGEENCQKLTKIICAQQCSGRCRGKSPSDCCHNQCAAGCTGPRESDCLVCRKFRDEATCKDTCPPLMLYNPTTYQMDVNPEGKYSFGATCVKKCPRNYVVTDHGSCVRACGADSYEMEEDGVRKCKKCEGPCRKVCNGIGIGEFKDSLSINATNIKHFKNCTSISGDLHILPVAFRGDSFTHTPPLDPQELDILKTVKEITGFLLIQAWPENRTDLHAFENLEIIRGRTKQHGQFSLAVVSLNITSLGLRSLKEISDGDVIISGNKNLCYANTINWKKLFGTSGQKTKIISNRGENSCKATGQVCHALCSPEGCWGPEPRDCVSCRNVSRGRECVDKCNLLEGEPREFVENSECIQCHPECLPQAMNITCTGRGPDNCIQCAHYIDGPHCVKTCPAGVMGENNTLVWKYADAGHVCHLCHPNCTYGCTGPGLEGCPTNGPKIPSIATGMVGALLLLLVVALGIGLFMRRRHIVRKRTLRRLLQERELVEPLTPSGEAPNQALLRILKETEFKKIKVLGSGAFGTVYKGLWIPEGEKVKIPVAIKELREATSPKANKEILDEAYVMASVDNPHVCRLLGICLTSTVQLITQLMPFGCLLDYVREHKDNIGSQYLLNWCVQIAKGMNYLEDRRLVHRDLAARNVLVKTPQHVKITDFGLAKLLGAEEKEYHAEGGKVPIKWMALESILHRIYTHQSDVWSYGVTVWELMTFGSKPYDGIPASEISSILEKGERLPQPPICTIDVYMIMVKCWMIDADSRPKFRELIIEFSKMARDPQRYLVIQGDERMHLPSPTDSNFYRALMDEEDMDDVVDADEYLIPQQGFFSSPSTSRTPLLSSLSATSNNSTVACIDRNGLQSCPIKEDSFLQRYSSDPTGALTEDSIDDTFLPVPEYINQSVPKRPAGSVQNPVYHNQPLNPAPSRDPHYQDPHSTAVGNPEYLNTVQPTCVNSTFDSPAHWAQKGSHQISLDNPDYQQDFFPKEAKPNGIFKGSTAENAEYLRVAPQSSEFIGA
Procedure: (§1) Syk kinase inhibition assays were run on 96-well plates using the ADP-Glo assay kit according to manufacturer's specifications. All kinase reactions were run using Kinase Assay Buffer III supplemented with DTT and MnCl2 as required by the kinase of interest to generate kinase reaction buffer. Stock solutions of kinase inhibitor in DMSO were diluted into 2× kinase reaction buffer and the final concentration of DMSO in each kinase reaction was held below 1%. The total volume of each kinase reaction was 25 μL apportioned as: 5 μL 2× kinase reaction buffer or diluted kinase inhibitor, 5 μL 1 mg/mL (stock) kinase substrate, 10 μL kinase in kinase reaction buffer, and 5 μL 250 μM ATP diluted into kinase reaction buffer. Kinase inhibitors were incubated with kinase and substrate prior to addition of ATP for 20 min at room temperature (RT). After addition of ATP to the wells, the plate was incubated at 37° C. for 30-60 minutes depending on the kinase used. After incubation the plate was cooled to RT for 5 minutes prior to addition of 25 μL ADP-Glo reagent and incubation on a shaker for 40 minutes. […] After 30 min, the luminescence was recorded using a Neo2 plate reader and 1 sec integration of the signal. The background signal was subtracted from all readings and the signal was normalized to the maximum signal obtained in the absence of inhibitor. […]

SRC = SRC (Homo sapiens, UniProt P12931); experiment: ADP-Glo kinase assay, SRC; assay type: biochemical; conditions: FIG. 6B
Sequence of SRC (P12931 whole entry): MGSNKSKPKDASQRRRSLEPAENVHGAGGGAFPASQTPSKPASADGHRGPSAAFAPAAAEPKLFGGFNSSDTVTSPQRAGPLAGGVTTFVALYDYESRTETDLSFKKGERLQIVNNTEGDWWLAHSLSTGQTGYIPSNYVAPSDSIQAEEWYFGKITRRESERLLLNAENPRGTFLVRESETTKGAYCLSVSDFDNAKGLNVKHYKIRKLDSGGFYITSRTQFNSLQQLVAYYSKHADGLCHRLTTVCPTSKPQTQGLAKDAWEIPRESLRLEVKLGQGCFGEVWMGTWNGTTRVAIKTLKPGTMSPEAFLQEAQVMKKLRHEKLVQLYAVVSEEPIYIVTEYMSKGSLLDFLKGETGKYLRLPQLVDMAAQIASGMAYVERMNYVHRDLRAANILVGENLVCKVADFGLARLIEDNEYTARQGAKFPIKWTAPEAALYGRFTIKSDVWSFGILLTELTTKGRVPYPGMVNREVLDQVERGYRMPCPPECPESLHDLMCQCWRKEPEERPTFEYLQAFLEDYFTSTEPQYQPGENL
Procedure: as §1

ZAP70 = biological target: T1, ZAP70 (Homo sapiens, UniProt P43403); experiment: ADP-Glo kinase assay, ZAP70; assay type: biochemical; conditions: FIG. 6B
T1 sequence (P43403 1-619): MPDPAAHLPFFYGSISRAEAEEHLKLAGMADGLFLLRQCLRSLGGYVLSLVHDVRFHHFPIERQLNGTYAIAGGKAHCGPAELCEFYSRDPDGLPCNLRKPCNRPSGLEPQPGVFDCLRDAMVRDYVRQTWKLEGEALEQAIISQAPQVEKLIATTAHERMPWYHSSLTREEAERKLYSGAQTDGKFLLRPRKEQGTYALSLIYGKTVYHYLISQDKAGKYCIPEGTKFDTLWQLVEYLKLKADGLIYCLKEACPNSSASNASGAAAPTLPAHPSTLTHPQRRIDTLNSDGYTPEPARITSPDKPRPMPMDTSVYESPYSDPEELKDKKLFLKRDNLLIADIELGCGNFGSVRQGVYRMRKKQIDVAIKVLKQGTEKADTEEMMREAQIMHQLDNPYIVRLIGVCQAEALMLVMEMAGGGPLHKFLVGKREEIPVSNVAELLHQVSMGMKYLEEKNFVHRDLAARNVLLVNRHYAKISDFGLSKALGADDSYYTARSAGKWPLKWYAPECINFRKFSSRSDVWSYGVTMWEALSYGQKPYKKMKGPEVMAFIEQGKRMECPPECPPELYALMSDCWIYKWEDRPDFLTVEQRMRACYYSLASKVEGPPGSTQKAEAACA
Procedure: as §1

Lyn A = Lyn A (Homo sapiens, UniProt P07948); experiment: ADP-Glo kinase assay, Lyn A; assay type: biochemical; conditions: FIG. 6B
Sequence of Lyn A (P07948 whole entry): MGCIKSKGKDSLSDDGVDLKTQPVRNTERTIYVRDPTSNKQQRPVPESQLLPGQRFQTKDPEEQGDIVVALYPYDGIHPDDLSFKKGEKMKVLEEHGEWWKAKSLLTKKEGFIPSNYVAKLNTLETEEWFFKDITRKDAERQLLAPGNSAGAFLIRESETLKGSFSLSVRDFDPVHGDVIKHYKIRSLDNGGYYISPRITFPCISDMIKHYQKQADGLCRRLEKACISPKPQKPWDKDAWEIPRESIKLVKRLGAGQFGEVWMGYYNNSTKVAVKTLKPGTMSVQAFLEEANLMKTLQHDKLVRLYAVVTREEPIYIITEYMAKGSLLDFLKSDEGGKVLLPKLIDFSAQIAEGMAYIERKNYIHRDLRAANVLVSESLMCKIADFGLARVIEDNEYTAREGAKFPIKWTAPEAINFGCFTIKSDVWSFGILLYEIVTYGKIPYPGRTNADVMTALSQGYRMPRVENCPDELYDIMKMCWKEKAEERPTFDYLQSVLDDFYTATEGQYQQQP
Procedure: as §1

[1] = test system: Syk phosphorylation of Band 3; experiment: Band 3 tyrosine phosphorylation induced in healthy donor RBCs by OV (Western blot); assay type: cell-based; conditions: Homo sapiens; healthy donor RBCs treated with OV; read-out: in vitro IC50 against Syk phosphorylation of Band 3
Procedure: (§2) RBC ghosts were then prepared by mixing 150 μL of packed RBCs with 1500 μL of ice-cold ghost buffer (5 mM Na2HPO4, 1 mM EDTA, pH 8.0, containing 1 mM phenylmethylsulfonyl fluoride (PMSF) and 1% phosphatase cocktail inhibitors 2 and 3) and allowed to sit on ice for 30 min. Samples were centrifuged at 13000 rpm for 15 min at 4° C. and supernatants were removed. Ghost pellets were washed an additional 3×, after which 10 μL was removed for determination of protein concentration using Pierce™ Rapid Gold BCA Protein Assay (Thermo Fisher Scientific, A53226). Residual ghosts were solubilized in 4× Laemmli buffer (Bio-Rad) at a concentration of 1 […] and warmed to 30° C. for 30 min prior to storage at −20° C. until use.
(§3) Band 3 tyrosine phosphorylation was quantitated by loading 30 μL of each thawed sample onto a 10% SDS-PAGE gel and separating at 90, 120 and 150 V for 30, 45 and 20 minutes, respectively. Proteins were then transferred to a nitrocellulose membrane at 100 V for 2 hours, after which membranes were immunostained with anti-phosphotyrosine (1:1000, Cell Signaling, Inc.) or anti-actin (1:20000) antibodies dissolved in TBST (25 mM Tris, 140 mM NaCl, 3 mM KCl, 0.05% v/v Tween-20) containing 5% w/v milk. […] Band 3 tyrosine phosphorylation intensity/densitometry was quantitated using image J software.

healthy donor human RBCs = experiment: Hemolysis (Hb release) induced by phosphatase inhibitors in healthy donor human RBCs; assay type: cell-based
Source text: (§4) Cayman's hemoglobin colorimetric assay was used to quantitate the level of cell-free plasma hemoglobin in both patient plasma samples and in the above kinase-treated RBC supernatant samples according to the manufacturer's instruction.

SCD patient RBCs [2] = experiment: Free plasma hemoglobin in SCD patient samples; assay type: cell-based, human; conditions: 1 μM S701, SCD patient samples
Procedure: (§5) For evaluation of the effect of tyrosine kinase inhibitors on release of RBC-derived MPs from sickle cells suspended at 30% Hct in PBS-G, 500 μL washed RBCs were treated for 1 hour with the desired concentration of tyrosine kinase inhibitor or vehicle control, and then shaken at 1400 RPM for 4 h. Newly released microparticles were then separated from residual RBCs by centrifuging at 800 rcf for 10 minutes, collecting the supernatant, and analyzing the supernatant for RBC-derived MPs as described above.
as §4

SCD patient RBCs [3] = experiment: Erythrocyte-derived microparticle release in SCD patient samples; assay type: cell-based, human; conditions: SCD patient samples incubated with 1 μM S701 (untreated SCD 18, healthy seven)
Procedure: Plasma from sickle cell samples (see above) was centrifuged 2× at 2500 rcf for 15 minutes to remove platelets and 100 μL of supernatant containing MPs was incubated for 20 minutes on ice with 0.5 μL of BV421 mouse-anti-human 235a antibody (anti-glycophorin A; BD Biosciences #562938). Samples were diluted with 1000 μL of stain buffer (BD Biosciences #554656), transferred to BD Trucount™ tubes (BD Biosciences #340334) and analyzed on an Attune NxT Flow Cytometer by utilizing violet fluorescent trigger channel. The absolute number of RBC-derived microparticles was then calculated using the following formula,
as §5

SCD patient RBCs [4] = experiment: RBC velocity through microfluidic capillary; assay type: cell-based, human; conditions: concentrations as low as 50 nM, various levels of oxygenation
Procedure: Microfluidic capillary devices were fabricated with polydimethylsiloxane (PDMS) using standard soft photolithography techniques. Capillaries were constructed with a straight channel (w=75 μm, h=6.52 μm) containing a constriction (wc=5 μm and h=6.52 μm). To control the oxygen level inside the channel, the microfluidic device was submerged in a customized glass chamber filled with sodium sulfite solution (0M, 0.01M, 0.1M or 1M) (Sigma-Aldrich). The oxygen level was calibrated using 25 μM of tris(2,2′-bipyridyl)dichlororuthenium(II) hexahydrate (an O2 indicator, Sigma-Aldrich) then converted into a PO2 value using the Stern-Volmer equation, I0/I=1+PO2×Kq, where I^0 is the maximum fluorescence intensity and Kq is the quenching constant. The calibration results are obtained.
Sickle cell blood samples were obtained from five patients (n=5, age 4-9 years old) and RBCs were isolated by centrifugation. […] For quantitation of RBC velocity in a microfluidic capillary, the RBC suspension was injected into the capillary at a constant pressure of 1.6 psi, and the velocity of the RBCs in the constriction was recorded using a high-speed video camera (Phantom Miro M120, 1900 frames per second) mounted on an inverted microscope (Leica DMI 6000B). Data were analyzed using Phantom Camera Control software.

phosphorylated Band 3 = experiment: Band 3 tyrosine phosphorylation in SCD RBC lysates (Western blot); assay type: cell-based, human; conditions: 1 μM S701, SCD RBC lysates, anti-pY Western blot
Procedure: as §2, §3

Compound: COc1ccc(Nc2nc(Nc3cccc4[nH]ccc34)ncc2F)c(-c2ccc(O)c(O)c2)c1 [S602, 2′-((2-((1H-indol-4-yl)amino)-5-fluoropyrimidin-4-yl)amino)-5′-methoxy-[1,1′-biphenyl]-3,4-diol]
Syk inhibition compared to S701 (Syk; FIG. 6B): even better IC50 value for inhibiting Syk as compared to S701
inhibitory effect on EGFR (EGFR): very significantly higher concentrations to have an impact
inhibitory effect on SRC (SRC): very significantly higher concentrations to have an impact
inhibitory effect on ZAP 70 (ZAP70): very significantly higher concentrations to have an impact
inhibitory effect on Lyn A (Lyn A): very significantly higher concentrations to have an impact

IC50 (Syk; cell-free): 0.581 µM
Compound: COc1cc(Nc2ncc(F)c(NC(=O)c3cc(O)c(O)c(O)c3)n2)cc(OC)c1OC [S701, N-(5-fluoro-2-((3,4,5-trimethoxyphenyl)amino)pyrimidin-4-yl)-3,4,5-trihydroxybenzamide]
inhibitory effect on EGFR (EGFR): has to be in really high concentrations to have any inhibitory effect
IC50 [1]: ~5 µM
percent inhibition of hemolysis at 5 µM (healthy donor human RBCs; 5 μM S701, Diamide, read-out: inhibition of hemolysis, Diamide): 50%
percent inhibition of hemolysis at 5 µM (healthy donor human RBCs; 5 μM S701, Phenylhydrazine, read-out: inhibition of hemolysis, Phenylhydrazine): 44%
percent inhibition of hemolysis at 5 µM (healthy donor human RBCs; 5 μM S701, phosphatase inhibitor OV, read-out: inhibition of hemolysis, OV): 25%
decrease of concentration of free plasma hemoglobin (SCD patient RBCs [2]): 47%
number of MPs released per μL of plasma (SCD patient RBCs [3]): five
RBC velocity through a 5 μm tube (SCD patient RBCs [4]): increased RBC velocity
phosphorylated Band 3 (phosphorylated Band 3): notable decrease in phosphorylated Band 3
